Measurements from US20250283050A1, “METHOD OF CANCER TREATMENT” (priority 2021, published 2025).
Entries after “also recorded” stand apart in the source; their conditions may differ.

What was measured:
[1] = tested on: normal epithelial cells of colon mucosal tissues; test: en bloc control colon mucosal tissue culture: normal epithelial cell death by PI-staining and FACS; format: cell-based, human; conditions: DOX 3 days
Method: (§1) To this end, en bloc colorectal cancers (CRC) or control non-tumor colon mucosal tissues from the same patients were incubated in RPMI based media and treated with DOX for 3 days. The effects of the treatment on tumor or normal cells were then determined by PI-staining and FACS analysis.
(§2) To this end, en bloc CRC tumor or control colon mucosal tissues were treated with DOX at low non-cytotoxic dosage and then co-cultured with TAMs transfected with Hom-1 or control GFP. After 5 days of co-culturing, the effects of the treatment on the survival of tumor or control normal epithelial cells were determined by PI staining and FACS analysis.
Tumor tissue were washed with 1×PBS buffer plus antibiotics and then cut into 0.5 cm pieces. Tissues were cultured in 2 mL of RPMI 1640 medium, supplemented with 2-10% FBS (Sigma) and 1% antibiotic-antimycotic solution (Gibco) in 24-well plate (Corning). The cultures were incubated at a 37° C., 5% CO2 incubator. […]
(§3) Single cell suspensions generated from en bloc tissue culture were washed with FACS staining solution (PBS plus 2% FBS), fixed and permeabilized (Invitrogen) and then stained with Ber-EP4 antibodies for normal epithelial cells and CK7, CK19 and CK20 for cancer cells for 30 minutes on ice. […] Cell viability were then analyzed with a flow cytometry.

stomach cancer = test: en bloc tumor culture with chemotherapeutic agent and Hom-1-TAMs: stomach cancer; format: cell-based; conditions: agent plus Hom-1-TAMs
Method: (§4) Besides CRC, Hom-1-TAMs reverse immune polarity of PDAC and NSCLC TME (data not shown). The effects of Hom-1-TAM on tumoricidal effects of DOX were further explored on other tumor types, such as PDAC, NSLC, esophageal cancer and stomach cancers.
(§5) Additional chemo-reagents used in this study are listed below.
(§6) Tumor tissue were washed with 1×PBS buffer plus antibiotics and then cut into 0.5 cm pieces. Tissues were cultured in 2 mL of RPMI 1640 medium, supplemented with 2-10% FBS (Sigma) and 1% antibiotic-antimycotic solution (Gibco) in 24-well plate (Corning). The cultures were incubated at a 37° C., 5% CO2 incubator. […] To evaluate the effect of chemotherapeutic agents, chemo-reagents at indicated concentration or PBS was used instead of the anti-PD-1 antibody. For en bloc tissue and macrophage co-culture assay, 0.25×10^6 GFP-Hom-1 or control GFP transfected autologous macrophages of the same patient were added to the en bloc tissue culture wells. After gently shaking, the plate was incubated at 37° C., 5% CO2 for 3-5 days. The en bloc tissues were then subjected to single 1 cell isolation and analysis as described.

[2] = tested on: colorectal cancers (CRC) tumor cells; test: en bloc CRC culture: tumor cell death by PI-staining and FACS; format: cell-based, human
Method: as §1, §2, §6
Single cell suspensions generated from en bloc tissue culture were washed with FACS staining solution (PBS plus 2% FBS), fixed and permeabilized (Invitrogen) and then stained with Ber-EP4 antibodies for normal epithelial cells and CK7, CK19 and CK20 for cancer cells for 30 minutes on ice. After washes with FACS staining solution, cells were stained with FITC-conjugated secondary antibodies for 30 minutes on ice. The cells were then washed with FACS staining solution and fixed in 2% paraformaldehyde in PBS for 30 min or overnight. The cells were washed and resuspended in 200 μL of FACS staining solution and 5 μL of PI staining solution (eBioscience/Fisher Scientific) were added in the solution for 15 minutes. Cell viability were then analyzed with a flow cytometry.

primary human CRC = test: NSG-PDX model of primary human CRC; format: in vivo; conditions: low dosage DOX 1.5 mg/kg tail-vein, alone
Method: To this end, NSG-PDX models of primary human CRC were established according to established methods. One week post-implantation of primary CRC tumors, the mice were tail-vein injected with a low dosage of Hom-1-TAMs. Three days later, low dosage DOX at 1.5 mg/kg were given through tail-vein injection and the DOX injection were repeated after two weeks.
Animal models of primary human colon cancers were developed previously. Briefly, 8-week-old NOD. Cg-Prkdc^scid Il2rg^tm1Wjl/SzJ mice (commonly known as NOD scid gamma, or NSG mice) were purchased from the Jackson Laboratory and maintained under specific pathogen-free conditions. Tumors were cut into around 0.5 cm pieces and then surgically implanted into subcutaneous space in flank of NSG mice. After one week of implantation, 0.25×10^6 TAMs transfected with GFP-Hom-1 or control GFP were injected into the mice through tail vain. After three days, 1.5 mg/Kg of DOX or PBS control were tail-vain injected and then repeated after two weeks. The tumor growth was monitored twice weekly and measured by a caliper for 6 weeks. Tumor volumes were calculated according to the formula ½ (length×width^2).

esophageal cancer = test: en bloc tumor culture with chemotherapeutic agent and Hom-1-TAMs: esophageal cancer; format: cell-based; conditions: agent plus Hom-1-TAMs
Method: as §4, §5, §6

PDAC = test: en bloc tumor culture with chemotherapeutic agent and Hom-1-TAMs: PDAC; format: cell-based; conditions: agent plus Hom-1-TAMs
Method: as §4, §5, §6

[3] = tested on: TAMs and TIL in en bloc CRC; test: en bloc CRC culture: DOX effects on TAM plasticity and TIL differentiation; format: cell-based, human
From the text: As DOX induces Hom-1 expression in TAMs in en bloc CRC culture (data not shown), this example illustrates the involvement of Hom-1 in mediating therapeutic effects of DOX.
Consistent with a key regulatory role of Hom-1 in mediating DOX effects on TAM plasticity and the immune landscape of TME, it was shown that knockdown of Hom-1 expression in TAMs attenuated DOX effects on the expression of M1 and M2 markers and inhibited DOX-induced secretion of pro-inflammatory cytokines (data not shown).
as §6

NFκB = test: NF-κB activation assay in monocytes; format: cell-based; conditions: primary human monocytes; 24 hour
Method: To determine whether NFκB plays a role in DOX activation of Hom-1 expression in monocytes, the effects of DOX on NFκB expression in primary monocytes were determined.
Human monocytes were treated with DOX at indicated concentration or PBS control. After 24 hour of treatment, the nuclear extracts were prepared using a nuclear extract kit (Active Motif, Cat. 40010). The DNA-binding activity of NF-κB p65 was determined using the TransAm assays (Active Motif, Cat. 40097) according to the manufacturer's instructions. Briefly, 2.5 μg nuclear extracts of each sample were incubated with immobilized NF-κB-specific oligonucleotides for 1 hr. The p65 protein bound to DNA was then visualized by incubation with p65-specific antibody, HRP-conjugated secondary antibody and developing solution and measured with a microplate reader with the absorbance at 450 nm.

[4] = tested on: non-small cell lung cancer (NSCLC); test: en bloc tumor culture with chemotherapeutic agent and Hom-1-TAMs: NSCLC; format: cell-based; conditions: agent plus Hom-1-TAMs
Method: as §4, §5, §6

[5] = tested on: NFκB binding to Hom-1 promoter; test: ChIP assay of NFκB at Hom-1 promoter; format: cell-based; conditions: human monocytes, 1 μM DOX, 24 hours
Method: Human monocytes were treated with 1 μM DOX or PBS control for 24 hours and harvested for ChIP assay. The ChIP procedure was performed with a kit from Upstate biotechnology following the manufacturer's instructions. The NFκB p65 antibody (Cell Signaling Technology, Cat# 8242) was used for the immunoprecipitation. The Rabbit IgG antibody was served as a negative control. The Hom-1 promotor region containing a putative NFκB binding site was amplified with specific primers 5′-[…]-3′ and 5′-[…]-3′. All PCR products were separated on 1% agarose gel and visualized by ethidium bromide staining.

Hom-1 expression in TAMs = test: DOX induction of Hom-1 expression; format: cell-based, human
Method: (§7) Total RNA was isolated by the TRIzol reagent (Life Technologies) and RNA amounts were measured by NanoDrop 2000 (Thermo Scientific). Equal amount of RNA was used for first-strand cDNA synthesis with SuperScript III First-Strand Synthesis System (Life Technologies) according to the manufacturer's protocol. The AccuPrime Taq DNA polymerase system (Life Technologies) was used to amplify Hom-1 cDNA with conventional PCR. Quantitative measurements of Hom-1 and other cDNA were carried out with SYBR Green, using a Mastercycler ep Gradient S (Eppendorf). GAPDH was used as a house keeping gene to normalize mRNA expression. Relative expression profiles of mRNAs were calculated using the comparative Ct method (DDCT method).
as §6, with “After gently shaking, the plate was incubated at 37° C., 5% CO2 for 3-5 days. The en bloc tissues were then subjected to single 1 cell isolation and analysis as described.” left out

[6] = tested on: TAMs and Treg in NSCLC-TME; test: en bloc NSCLC culture: effects of PD-1 antibody on TAMs and Treg (FACS, qRT-PCR of Hom-1); format: cell-based, human; conditions: 1 μg/mL Pembrolizumab, 48 hours
Method: The effects of the treatment on TAMs were determined by FACS analysis of cell surface expression of CD68 and CD206 and qRT-PCR analysis of Hom-1 expression levels.
as §7
Tumor tissue were washed with 1×PBS buffer plus antibiotics and then cut into 0.5 cm pieces. Tissues were cultured in 2 mL of RPMI 1640 medium, supplemented with 2-10% FBS (Sigma) and 1% antibiotic-antimycotic solution (Gibco) in 24-well plate (Corning). The cultures were incubated at a 37° C., 5% CO2 incubator. […] To evaluate the effect of chemotherapeutic agents, chemo-reagents at indicated concentration or PBS was used instead of the anti-PD-1 antibody. […]

NSCLC cancer cells = test: en bloc NSCLC culture: cancer cell viability by PI-staining and FACS; format: cell-based, human; conditions: PD-1 antibody alone, 5 days
Method: Single cell suspensions were then obtained by mechanical disruption. The tumor cells were fixed and permeabilized, and were stained with CK7 antibodies and non-tumor epithelial cells were stained with EP4 antibodies. The cells were labeled with PI and percentage of PI positive cells were determined by FACS analysis.
As TME has been implicated in ICI resistance, it was next shown that reversal of immune suppression at NSCLC-TME increased efficacy of PD-1 antibodies. Specifically, en block NSCLC or control nLung tissues were treated with PD-1 or control antibodies, and co-cultured with autologous TAMs transfected with Hom-1 or control GFP. The effects of co-culturing were determined by FACS analysis of cancer or normal epithelial cell viability.
Tumor tissue were washed with 1×PBS buffer plus antibiotics and then cut into 0.5 cm pieces. Tissues were cultured in 2 mL of RPMI 1640 medium, supplemented with 2-10% FBS (Sigma) and 1% antibiotic-antimycotic solution (Gibco) in 24-well plate (Corning). […]
as §3

primary human NSCLC = test: individual NSG-PDX models of primary human NSCLC; format: in vivo, NSG mice; conditions: infusion of PD-1 antibody alone
From the text: Specifically, individual NSG-PDX models of primary NSCLC were generated by engrafting small pieces of primary NSCLC tissues into subcutaneous space on the dorsal lateral side of NSG mice.
Individual NSG-PDX models of primary human lung cancers were developed according to standard procedure. All animal experiments were approved by the Institutional Animal Care and Use Committee. Briefly, 8-week-old NOD.Cg-Prkdc^scid Il2rg^tm1Wjl/SzJ mice (commonly known as NOD scid gamma, or NSG mice) were purchased from the Jackson Laboratory and maintained under specific pathogen-free conditions. NSCLC tumors were cut into around 0.5 cm pieces and then surgically implanted into subcutaneous space on the dorsal side of NSG mice. […] The tumor growth was monitored twice weekly and measured by a caliper for 6 weeks. Tumor volumes were calculated according to the formula ½ (length×width^2).

CD8 T cells in NSCLC-TME = test: en bloc NSCLC culture: PD-1 antibody activation of CD8 T cells (FACS and ELISA of IL-2, IFN-γ); format: cell-based, human
Method: Tumor infiltrating T (TIL) cells and TAMs were then isolated, and their functional status were determined by FACS analysis.
Single cell suspensions were then generated and stained with FITC conjugated anti-CD8 antibody. The cells were then fixed, permeabilized, stained with PE-conjugated anti-IL2, or anti-IFNy antibodies and analyzed by a flow cytometry.
The culture media were collected after 48 hours. The levels of IL-2, and IFN-γ were quantified using ELISA kits, and statistical significance was determined by a two-way ANOVA analysis.
Levels of IL-1B, IL-2, IFN-γ and TNF-α were quantified using ELISA kits obtained from eBiosciences. Analyses were conducted according to the manufacturer's instructions. Triplicate wells were plated for each condition.
as §6, with “After gently shaking, the plate was incubated at 37° C., 5% CO2 for 3-5 days. The en bloc tissues were then subjected to single 1 cell isolation and analysis as described.” left out

COc1cccc2c1C(=O)c1c(O)c3c(c(O)c1C2=O)C[C@@](O)(C(=O)CO)C[C@@H]3O[C@H]1C[C@H](N)[C@H](O)[C@H](C)O1 [DOX, Doxorubicin]
cytotoxic effects on normal epithelial cells [1]: less cytotoxic effects on normal epithelial cells | tumoricidal effects promoted by Hom-1-TAMs (stomach cancer): promotes tumoricidal function | cytocidal effects on tumor cells ([2]; en bloc CRC culture, agent alone, dose range): dosage-dependent cytocidal effects on tumor cells | cytocidal effects on tumor cells ([2]; en bloc CRC, DOX alone at non-cytotoxic concentration, 5 days): little cytocidal effects on tumor cells | inhibition of CRC tumorigenesis (primary human CRC): small discernable inhibition on CRC tumorigenesis | tumoricidal effects promoted by Hom-1-TAMs (esophageal cancer): promotes tumoricidal function | tumoricidal effects promoted by Hom-1-TAMs (PDAC): promotes tumoricidal function | CD4 T cell differentiation into Treg cells [3]: reduced CD4 T cell differentiation into Treg cells | CD8 T cell activation [3]: increased CD8 T cell activation | TAM phenotype (M1/M2 markers and cytokines) [3]: shifted the population of TAMs from M2-like phenotype to M1-like phenotype | NFκB expression (NFκB): induces NFκB expression in primary human monocytes in a dosage dependent manner | tumoricidal effects promoted by Hom-1-TAMs [4]: promotes tumoricidal function | interaction of NFκB with Hom-1 promoter [5]: promoted the interaction of NFκB with Hom-1 promoter | Hom-1 expression (Hom-1 expression in TAMs; cancer cells and macrophages): potent inducer of Hom-1 expression both in cancer cells and in macrophages | TAM Hom-1 expression (Hom-1 expression in TAMs; en bloc CRC culture): induced TAM Hom-1 expression in the en bloc CRC culture in a dosage dependent manner

Nc1ccn([C@@H]2O[C@H](CO)[C@@H](O)C2(F)F)c(=O)n1 [Gemcitabine]
tumoricidal effects promoted by Hom-1-TAMs (PDAC): promoted

Pembrolizumab [PD-1 antibody]
phenotypical changes of Treg cells and TAMs [6]: no significant phenotypical changes of the Treg cells and TAMs | expression of Hom-1 in TAMs ([6]; qRT-PCR): did not alter the expression of Hom-1 in TAMs | PI-staining of tumor cells (tumoricidal effect) (NSCLC cancer cells): modest tumoricidal effects on cancer cells | PI-staining of tumor cells (tumoricidal effect) (NSCLC cancer cells; listed as anti-PD-1 antibodies): modest increase of PI-staining of tumor cells | inhibition of tumorigenesis (primary human NSCLC): modest inhibition of tumorigenesis | CD8 T cell activation (expression and secretion of IL-2 and IFN-γ) (CD8 T cells in NSCLC-TME; 1 μg/mL Pembrolizumab vs human IgG4, 24 or 48 hours): activates CD8 T cells in TME; also recorded: activates CD8^+ CTL | dosage dependence of PD-1 antibody effect on CD8 T cell activation (CD8 T cells in NSCLC-TME; various concentrations, 48 hours, ELISA): dosage dependent
